# In article PMC11272598, “RG7774 (Vicasinabin), an orally bioavailable cannabinoid receptor 2 (CB2R) agonist, decreases retinal vascular permeability, leukocyte adhesion, and ocular inflammation in animal models” (Frontiers in Pharmacology, 2024):
# Molecular target: human CB1R (Homo sapiens, UniProt P21554)
# Assay: Forskolin-stimulated cAMP assay in CHO cells
# Type: cell-based
# Design: bgal (beta-galactosidase fragment of the PathHunter system); host or cells: CHO-K1
# Settings: recombinant CHO cells
# Method: The inhibitory effects of RG7774 on forskolin-stimulated accumulation of cAMP were determined using the cAMP-Nano-TRF detection kit (Roche Diagnostics, Penzberg, Germany), as previously described ([Porter et al., 2019]). CHOK1hCB1_bgal, CHOK1mCB2_bgal, and CHOK1hCB2_bgal cells (DiscoveRx, Fremont, CA, United States) were seeded 17–24 h prior to the experiment at a density of 3 × 10^4 cells per well in a black 96-well plate with a flat, clear bottom (Corning, Wiesbaden, Germany) prior to incubating in 5% CO2 at 37°C in a humidified incubator. The growth medium was exchanged with Krebs Ringer bicarbonate buffer containing 1 mM IBMX and 0.1% fatty acid-free BSA and incubated at 30°C for 1 h. RG7774 or positive control (CP55940) (1 µM) was added to a 0.1 mL final assay volume and the mixture was incubated at 30°C for 30 min. The assay was stopped by adding 50 μL 3x lysis reagent and shaking for 2 h at RT. The time-resolved energy transfer was measured using an LF502 Nanoscan FLT (IOM, Berlin, Germany) equipped with a laser excitation source. cAMP content was determined from a standard curve spanning 10–0.13 nM cAMP. Efficacies were expressed as a percentage relative to the positive control.
# Chain of human CB1R (P21554 whole entry): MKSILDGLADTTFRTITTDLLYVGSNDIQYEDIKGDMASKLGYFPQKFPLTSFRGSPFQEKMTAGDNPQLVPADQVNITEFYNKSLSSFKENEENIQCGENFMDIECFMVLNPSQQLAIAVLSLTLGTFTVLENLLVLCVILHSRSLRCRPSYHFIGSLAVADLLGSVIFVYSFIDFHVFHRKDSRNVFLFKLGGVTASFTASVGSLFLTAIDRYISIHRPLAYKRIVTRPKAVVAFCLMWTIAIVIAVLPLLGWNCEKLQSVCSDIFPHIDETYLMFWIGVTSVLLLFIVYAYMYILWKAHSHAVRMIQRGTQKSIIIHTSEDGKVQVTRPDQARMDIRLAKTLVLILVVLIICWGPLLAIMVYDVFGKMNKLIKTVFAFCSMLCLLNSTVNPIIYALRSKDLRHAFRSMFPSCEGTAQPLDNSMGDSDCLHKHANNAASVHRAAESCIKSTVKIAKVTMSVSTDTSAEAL
smiles,measurement,value
"Cn1nnnc1Cn1nnc2c(N3CC[C@H](O)C3)nc(C(C)(C)C)nc21 [RG7774, (S)-1-(5-tert-butyl-3-[(1-methyl-1H-tetrazol-5-yl)methyl]-3H-[1,2,3]triazolo[4,5-d]pyrimidin-7-yl)pyrrolidin-3-ol]",effect on human CB1R in cAMP assay,no effect
